From patent publication US20260364184A1, “COMPOUND BASED ON OXOISOINDOLINYL-SUBSTITUTED TETRAHYDROPYRIMIDINE-DIONE AND USE THEREOF” (GLUETACS THERAPEUTICS (SHANGHAI) CO., LTD., priority 2023, published 2026)

Legend:
Assay type in all cases: cell-based
[1] = system: Human T lymphocytic leukemia cell line (Jurkat); test: Inhibition of Jurkat cell proliferation (CellTiter luminescent viability); conditions: 96 hours; for IC50: Table IA1, IRAK4 inhibitor-based, read-out: Inhibitory activity (IC50, nM) on tumor cell proliferation, Jurkat; for inhibition at 0.01 µM / inhibition at 0.5 µM: Homo sapiens, Table IF3, AR inhibitor-based; for inhibition at 0.01 µM: 10 nM, read-out: Inhibition Rate at 10 nM (%); for inhibition at 0.5 µM: 500 nM, read-out: Inhibition Rate at 500 nM (%)
[2] = system: Human Multiple myeloma cell line (MM.1S); test: Inhibition of MM.1S cell proliferation (CellTiter luminescent viability); conditions: 96 hours; for IC50: Table IA1, IRAK4 inhibitor-based, read-out: Inhibitory activity (IC50, nM) on tumor cell proliferation, MM.1S; for inhibition at 0.01 µM / inhibition at 0.5 µM: Homo sapiens, MM1.S, Table IA5, IRAK4 inhibitor-based; for inhibition at 0.01 µM: 10 nM, read-out: Inhibition Rate at 10 nM (%); for inhibition at 0.5 µM: 500 nM, read-out: Inhibition Rate at 500 nM (%)
Procedure, shortened: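 IC50 is fitted from luminescent viability (CellTiter-Meiluncell) curves. Nine-point, 5-fold dilution series (top stock 2000 μM) are added at 0.5 μL per 100 μL medium to cells plated the day before, with growth at 37 °C and 5% CO2.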

[3] = target: T1, AR (Homo sapiens, UniProt P10275); test: Western blot degradation of AR; conditions: LnCap Cell; 24 hours
T1 construct: expression of target proteins in cells; endogenous in cells
T1 sequence (P10275 1-920): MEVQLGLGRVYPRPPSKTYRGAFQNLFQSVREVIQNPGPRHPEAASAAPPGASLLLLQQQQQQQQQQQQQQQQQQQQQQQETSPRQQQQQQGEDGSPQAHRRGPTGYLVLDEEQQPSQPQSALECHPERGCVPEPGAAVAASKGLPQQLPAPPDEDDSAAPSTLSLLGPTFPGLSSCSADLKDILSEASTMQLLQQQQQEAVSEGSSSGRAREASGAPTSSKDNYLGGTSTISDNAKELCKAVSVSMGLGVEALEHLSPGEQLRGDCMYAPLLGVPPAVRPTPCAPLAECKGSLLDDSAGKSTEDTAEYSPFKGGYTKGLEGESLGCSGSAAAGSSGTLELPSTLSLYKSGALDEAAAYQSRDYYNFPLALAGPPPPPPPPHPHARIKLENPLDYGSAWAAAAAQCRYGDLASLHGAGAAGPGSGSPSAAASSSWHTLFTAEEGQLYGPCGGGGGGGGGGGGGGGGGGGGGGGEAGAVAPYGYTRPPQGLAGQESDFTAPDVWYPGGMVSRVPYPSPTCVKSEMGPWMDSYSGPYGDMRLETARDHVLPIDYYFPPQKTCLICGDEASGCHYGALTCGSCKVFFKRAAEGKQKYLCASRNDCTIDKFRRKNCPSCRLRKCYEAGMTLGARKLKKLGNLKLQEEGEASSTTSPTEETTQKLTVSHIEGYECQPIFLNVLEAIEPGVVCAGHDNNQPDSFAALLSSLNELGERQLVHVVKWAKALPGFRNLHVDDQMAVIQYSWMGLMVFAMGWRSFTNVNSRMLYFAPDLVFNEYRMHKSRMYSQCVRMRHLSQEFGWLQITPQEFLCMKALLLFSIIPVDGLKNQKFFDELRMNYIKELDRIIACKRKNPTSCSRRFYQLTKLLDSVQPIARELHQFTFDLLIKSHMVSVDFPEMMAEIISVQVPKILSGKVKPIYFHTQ
Procedure, shortened: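 Cells treated with compound, lysed, and target protein detected by Western blot (SDS-PAGE, nitrocellulose transfer). DC50 taken as the concentration giving band grayscale half that of DMSO control, estimated by concentration-response fitting; remaining protein (%) from target band normalised to internal control band; degradation (%) = 1 − remaining.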

[4] = Inhibition of RPMI-8226 cell proliferation (CellTiter luminescent viability); conditions: Homo sapiens; Table IA4, IRAK4 inhibitor-based; RPMI-8226, 10 nM, 96 hours; read-out: Inhibition Rate at 10 nM (%)
[5] = system: Human B-Cell Lymphoma Cells (RPMI-8226); test: as above; conditions: Table IA4, IRAK4 inhibitor-based, RPMI-8226, 500 nM, 96 hours, read-out: Inhibition Rate at 500 nM (%)

Q: With O=C1CCN(N2Cc3cc(CN4CCC(n5cc(NC(=O)c6coc(-c7ccnc(NCC8CC8)c7)n6)c(C(F)F)n5)CC4)ccc3C2=O)C(=O)N1 [GT-04951, 2-(2-((cyclopropylmethyl)amino)pyridin-4-yl)-N-(3-(difluoromethyl)-1-(1-((2-(2,4-dioxotetrahydropyrimidin-1(2H)-yl)-1-oxoisoindolin-5-yl)methyl)piperidin-4-yl)-1H-pyrazol-4-yl) oxazole-4-carboxamide] as the molecule, how does the IC50 [1] read?
A: Its IC50 is 100 to 300 nM.

Q: What about the IC50 [2] of the same molecule?
A: The IC50 was 10 to 50 nM.

Q: For O=C1CCN(N2Cc3cc(CN4CCC(n5cc(NC(=O)c6cnn7ccc(N8C[C@H]9C[C@@H]8CO9)nc67)c(C(F)F)n5)CC4)ccc3C2=O)C(=O)N1 [GT-05028, 5-((1R,4R)-2-oxa-5-azabicyclo[2.2.1]heptan-5-yl)-N-(3-(difluoromethyl)-1-(1-((2-(2,4-dioxotetrahydropyrimidin-1(2H)-yl)-1-oxoisoindolin-5-yl)methyl)piperidin-4-yl)-1H-pyrazol-4-yl)pyrazolo[1,5-a]pyrimidine-3-carboxamide], which IC50 [1] is on record?
A: Its IC50 is 100 to 300 nM.

Q: And the IC50 [2]?
A: The IC50 was 10 to 50 nM.

Q: Which “Degradation of substrate protein AR (substrate protein remaining %)” value (shortened to “Degradation … (substrate protein remaining %)”) [3] does the source give for N#Cc1ccc(O[C@H]2CC[C@H](NC(=O)c3ccc(N4CCC(CN5C[C@@H]6C[C@H]5CN6c5ccc6c(c5)C(=O)N(N5CCC(=O)NC5=O)C6=O)CC4)nn3)CC2)cc1Cl [GT-05226, N-((1r,4r)-4-(3-chloro-4-cyanophenoxy)cyclohexyl)-6-(4-(((1S,4S)-5-(2-(2,4-dioxotetrahydropyrimidin-1(2H)-yl)-1,3-dioxoisoindolin-5-yl)-2,5-diazabicyclo[2.2.1]heptan-2-yl)methyl)piperidin-1-yl)pyridazine-3-carboxamide] here?
A: Its value is “A (0%≤substrate protein remaining %≤80%)”.

Q: Which results are given for O=C1CCN(N2C(=O)c3ccc(N4C5CC4CN(C[C@H]4CC[C@H](n6cc(NC(=O)c7cnn8ccc(N9C[C@H]%10C[C@@H]9CO%10)nc78)c(C(F)F)n6)CC4)C5)cc3C2=O)C(=O)N1 [GT-05242, 5-((1R,4R)-2-oxa-5-azabicyclo[2.2.1]heptan-5-yl)-N-(3-(difluoromethyl)-1-((1r,4R)-4-((6-(2-(2,4-dioxotetrahydropyrimidin-1(2H)-yl)-1,3-dioxoisoindolin-5-yl)-3,6-diazabicyclo[3.1.1]heptan-3-yl)methyl)cyclohexyl)-1H-pyrazol-4-yl)pyrazolo[1,5-a]pyrimidine-3-carboxamide]?
A: inhibition at 0.01 µM [4]: 20 to 25%; inhibition at 0.5 µM [5]: 30 to 40%

Q: With O=C1CCN(N2C(=O)c3cccc(N4CCC(CN5CCC(n6cc(NC(=O)c7cnn8ccc(N9C[C@H]%10C[C@@H]9CO%10)nc78)c(C(F)F)n6)CC5)CC4)c3C2=O)C(=O)N1 [GT-05285, 5-((1R,4R)-2-oxa-5-azabicyclo[2.2.1]heptan-5-yl)-N-(3-(difluoromethyl)-1-(1-((1-(2-(2,4-dioxotetrahydropyrimidin-1(2H)-yl)-1,3-dioxoisoindolin-4-yl)piperidin-4-yl)methyl)piperidin-4-yl)-1H-pyrazol-4-yl)pyrazolo[1,5-a]pyrimidine-3-carboxamide] as the molecule, how does the inhibition at 0.01 µM [2] read?
A: The inhibition at 0.01 µM was 40 to 60%.

Q: And the inhibition at 0.5 µM [2]?
A: The inhibition at 0.5 µM was 60 to 80%.

Q: What about the inhibition at 0.01 µM [4] of the same molecule?
A: The inhibition at 0.01 µM was 30 to 40%.

Q: What about the inhibition at 0.5 µM [5] of the same molecule?
A: The inhibition at 0.5 µM was 25 to 30%.

Q: For CC(C)(O)c1cc2nc(C3CCN(Cc4ccc5c(c4)CN(N4CCC(=O)NC4=O)C5=O)CC3)oc2cc1NC(=O)c1cccc(C(F)(F)F)n1 [GT-05748, N-(2-(1-((2-(2,4-dioxotetrahydropyrimidin-1(2H)-yl)-1-oxoisoindolin-5-yl)methyl)piperidin-4-yl)-5-(2-hydroxypropan-2-yl)benzo[d]oxazol-6-yl)-6-(trifluoromethyl) picolinamide], which inhibition at 0.01 µM [4] is on record?
A: The inhibition at 0.01 µM was 30 to 40%.

Q: And the inhibition at 0.5 µM [5]?
A: Its inhibition at 0.5 µM is 15 to 20%.

Q: Which results are given for O=C1CCN(N2Cc3cc(CN4CCC(n5cc(NC(=O)c6cnn7ccc(N8CCOCC8)nc67)c(C(F)F)n5)CC4)ccc3C2=O)C(=O)N1 [GT-05749]?
A: inhibition at 0.01 µM [2]: 20 to 25%; inhibition at 0.5 µM [2]: 80 to 100%; inhibition at 0.01 µM [4]: 25 to 30%; inhibition at 0.5 µM [5]: 15 to 20%

Q: With N#Cc1ccc(O[C@H]2CC[C@H](NC(=O)c3ccc(N4CCC(CN5CC6CCC5CN6c5ccc6c(c5)C(=O)N(N5CCC(=O)NC5=O)C6=O)CC4)nn3)CC2)cc1Cl (some centres unmarked) [GT-05832, N-((1r,4r)-4-(3-chloro-4-cyanophenoxy)cyclohexyl)-6-(4-((5-(2-(2,4-dioxotetrahydropyrimidin-1(2H)-yl)-1,3-dioxoisoindolin-5-yl)-2,5-diazabicyclo[2.2.2]octan-2-yl)methyl)piperidin-1-yl)pyridazine-3-carboxamide] as the molecule, how does the inhibition at 0.01 µM [1] read?
A: The inhibition at 0.01 µM was 0 to 5%.

Q: What about the inhibition at 0.5 µM [1] of the same molecule?
A: Its inhibition at 0.5 µM is 20 to 30%.

Q: What about the “Degradation … (substrate protein remaining %)” value [3] of the same molecule?
A: Its value is “A (0%≤substrate protein remaining %≤80%)”.

Q: For CC1(C)[C@H](NC(=O)c2ccc(N3CCC(CN4CC5CCC4CN5c4ccc5c(c4)C(=O)N(N4CCC(=O)NC4=O)C5=O)CC3)nc2)C(C)(C)[C@H]1Oc1ccc(C#N)c(Cl)c1 (some centres unmarked) [GT-05834, N-((1r,3r)-3-(3-chloro-4-cyanophenoxy)-2,2,4,4-tetramethylcyclobutyl)-6-(4-((5-(2-(2,4-dioxotetrahydropyrimidin-1(2H)-yl)-1,3-dioxoisoindolin-5-yl)-2,5-diazabicyclo[2.2.2]octan-2-yl)methyl)piperidin-1-yl)nicotinamide], which inhibition at 0.01 µM [1] is on record?
A: Its inhibition at 0.01 µM is 15 to 20%.

Q: What about the inhibition at 0.5 µM [1] of the same molecule?
A: The inhibition at 0.5 µM was 40 to 60%.

Q: And the “Degradation … (substrate protein remaining %)” value [3]?
A: Its value is “A (0%≤substrate protein remaining %≤80%)”.
